According to patent US6806273B1, “Compounds” (AstraZeneca AB, priority 1998, dated 2004):

Structure (SMILES)	melting point [°C]
CCCCCSc1nc(NC(CC)CO)c2sc(N)nc2n1 (racemic) [Example 6, (±)-2-[[2-Amino-5-(pentylthio)thiazolo[4,5-d]pyrimidin-7-yl]amino]-1-butanol]	151 to 154
O=c1[nH]c(SCc2cccc(Oc3ccccc3)c2)nc2ncsc12 [Example 4, 5-[[(3-Phenoxyphenyl)methyl]thio]thiazolo[4,5-d]pyrimidin-7(4H)-one]	197 to 198
CCCCCSc1nc(NCCO)c2sc(N)nc2n1 [Example 7, 2-[[2-Amino-5-(pentylthio)thiazolo[4,5-d]pyrimidin-7-yl]amino]ethanol]	192 to 195
CCCCCSc1nc2ncsc2c(=O)[nH]1 [Example 8, 5-(Pentylthio)thiazolo[4,5-d]pyrimidin-7(4H)-one]	208 to 209
CCCCCSc1nc2nc(Br)sc2c(=O)[nH]1 [Example 11, 2-Bromo-5-(pentylthio)thiazolo[4,5-d]pyrimidin-7(4H)-one]	189 to 191

The next lines start with the values.

melting point [°C]	Structure (SMILES)
266 to 269	Nc1nc2nc(SCc3cccc(Oc4ccccc4)c3)[nH]c(=O)c2s1 [Example 5, 2-Amino-5-[[(3-phenoxyphenyl)methyl]thio]thiazolo[4,5-d]pyrimidin-7(4H)-one]
108 to 111	CC[C@H](CO)Nc1nc(SCc2cccc(Oc3ccccc3)c2)nc2nc(N)sc12 [Example 111, (2R)-2-[[2-Amino-5-[[(3-phenoxyphenyl)methyl]thio]thiazolo[4,5-d]pyrimidin-7-yl]amino]-1-butanol]
111 to 114	CC[C@@H](CO)Nc1nc(SCc2cccc(Oc3ccccc3)c2)nc2nc(N)sc12 [Example 112, (2S)-2-[[2-Amino-5-[[(3-phenoxyphenyl)methyl]thio]thiazolo[4,5-d]pyrimidin-7-yl]amino]-1-butanol]
220 to 222	Nc1nc2nc(SCc3cccc(Oc4ccccc4)c3)nc(NC(CO)CO)c2s1 [Example 114, 2-[[2-Amino-5-[[(3-phenoxyphenyl)methyl]thio]thiazolo[4,5-d]pyrimidin-7-yl]amino]-1,3-propanediol]
126 to 130	CC(C)(CO)Nc1nc(SCc2cccc(Oc3ccccc3)c2)nc2nc(N)sc12 [Example 115, 2-[[2-Amino-5-[[(3-phenoxyphenyl)methyl]thio]thiazolo[4,5-d]pyrimidin-7-yl]amino]-2-methyl-1-propanol]
